Source: ChEMBL document CHEMBL4483862, “Open-source discovery of chemical leads for next-generation chemoprotective antimalarials” (2018)

Tested on: Plasmodium berghei
Test: Luciferase/luciferin-expressing antifolate-resistant parasites were used to infect a culture of HepG2 cells that were pre-incubated with compounds. Infected hepatocytes emit light due to the luciferase reaction. Assay results are presented as the percent inhibition of light emission compared to control. […]
Format: functional
Conditions: sporozoite; for IC90: read-out: LUCIFERASE INFECTION ASSAY - IC90
[1] = read-out: LUCIFERASE INFECTION ASSAY - IC50

Compound	IC90	also measured
COc1cc2c(cc1OC)CN(C(=O)CCN1c3ccccc3Sc3ccccc31)CC2	8.48 µM	IC50 (HEPG2TOX_HILL_SLOPE 15.5, HEPG2TOX_R_SQUARED 0.469, PBLUC_HILL_SLOPE 3.54, PBLUC_R_SQUARED 0.432, read-out: LUCIFERASE INFECTION ASSAY - IC50): 4.56 µM
COc1ccc(Cn2c(C)nc3c(cnn3-c3ccc(Cl)cc3)c2=O)cc1	> 8.67 µM	IC50 (HEPG2TOX_HILL_SLOPE 7.21, HEPG2TOX_R_SQUARED 0.304, PBLUC_HILL_SLOPE 6.35, PBLUC_R_SQUARED 0.427, read-out: LUCIFERASE INFECTION ASSAY - IC50): 7.48 µM
Cn1cnc2cnc(Nc3ccc(F)c(Cl)c3)cc21	> 10 µM	IC50 (HEPG2TOX_HILL_SLOPE 2.92, HEPG2TOX_R_SQUARED 0.693, read-out: LUCIFERASE INFECTION ASSAY - IC50): > 10 µM
C=CCn1c(COc2cc(C)ccc2C(C)C)nnc1SCC(=O)NCC12CC3CC(CC(C3)C1)C2	> 10 µM	IC50 (PBLUC_HILL_SLOPE 17.6, PBLUC_R_SQUARED 0.542, read-out: LUCIFERASE INFECTION ASSAY - IC50): 9.43 µM
Cc1ccc(C(NCC(=O)Nc2sccc2C(N)=O)c2cccs2)cc1 (centres undefined)	3.67 µM	IC50 (PBLUC_HILL_SLOPE 4.31, PBLUC_R_SQUARED 0.32, read-out: LUCIFERASE INFECTION ASSAY - IC50): 2.2 µM
Cc1ccccc1CN1CCN(c2cc(=O)n3ccccc3n2)CC1	> 10 µM	IC50 [1]: 6.42 µM
O=C(Nc1cc(Cl)cc(Cl)c1)Nc1cc(Cl)cc(Cl)c1	1.35 µM	IC50 (HEPG2TOX_HILL_SLOPE 1.67, HEPG2TOX_R_SQUARED 0.958, PBLUC_HILL_SLOPE 0.797, PBLUC_R_SQUARED 0.657, read-out: LUCIFERASE INFECTION ASSAY - IC50): 0.0855 µM
Cc1sc2nc(-c3cccnc3)nc(NCC(c3ccco3)N(C)C)c2c1C (centres undefined)	> 10 µM	IC50 [1]: > 10 µM
Cc1cc(N2CCN(CCO)CC2)n2ncc(-c3ccc(F)cc3)c2n1	7.96 µM	IC50 (PBLUC_HILL_SLOPE 1.69, PBLUC_R_SQUARED 0.874, read-out: LUCIFERASE INFECTION ASSAY - IC50): 2.17 µM
c1ccc(Oc2cccc(-c3ccc4nnc(-c5ccc6nccnc6c5)n4c3)c2)cc1	> 10 µM	IC50 (PBLUC_HILL_SLOPE 2.21, PBLUC_R_SQUARED 0.734, read-out: LUCIFERASE INFECTION ASSAY - IC50): 4.56 µM
O=C(/C=C/c1cccc([N+](=O)[O-])c1)c1cccc(N2CCCC2=O)c1	4.73 µM	IC50 (HEPG2TOX_HILL_SLOPE 11.8, HEPG2TOX_R_SQUARED 0.912, PBLUC_HILL_SLOPE 14.2, PBLUC_R_SQUARED 0.853, read-out: LUCIFERASE INFECTION ASSAY - IC50): 4.05 µM
Cc1cc(Cl)ccc1S(=O)(=O)N(Cc1ccncc1)C1CC1	7.99 µM	IC50 (PBLUC_HILL_SLOPE 1.42, PBLUC_R_SQUARED 0.462, read-out: LUCIFERASE INFECTION ASSAY - IC50): 1.69 µM
Oc1ccc(Br)cc1/C=C/c1ccc2cccc(O)c2n1	> 9.64 µM	IC50 (HEPG2TOX_HILL_SLOPE 9.84, HEPG2TOX_R_SQUARED 0.0138, PBLUC_HILL_SLOPE 10.3, PBLUC_R_SQUARED 0.574, read-out: LUCIFERASE INFECTION ASSAY - IC50): 8.32 µM
CCN(CC(O)COc1ccccc1-c1ccccc1)C1CCCCC1 (centres undefined)	9.13 µM	IC50 (HEPG2TOX_HILL_SLOPE 6.72, HEPG2TOX_R_SQUARED 0.0493, PBLUC_HILL_SLOPE 495, PBLUC_R_SQUARED 0.169, read-out: LUCIFERASE INFECTION ASSAY - IC50): 9.09 µM
Cc1cc2occ(CC(=O)N(c3ccc(F)cc3)c3nc4ccccc4s3)c2cc1C(C)C	> 10 µM	IC50 (FFLUC_HILL_SLOPE 13, FFLUC_R_SQUARED 0.172, read-out: LUCIFERASE INFECTION ASSAY - IC50): > 10 µM
CN(C)c1ccc(/C=C/c2ccc3c4ccccc4ccc3[n+]2-c2ccccc2)cc1	1.23 µM	IC50 [1]: 1.07 µM
COc1ccc(S(=O)(=O)N2CCN(CC(=O)N3CCCCCC3)CC2)cc1	> 10 µM	IC50 [1]: > 10 µM
COCOc1ccc(-c2cc(-c3ccc(C(N)=O)cc3)cnc2N)cc1	3.43 µM	IC50 (PBLUC_HILL_SLOPE 15.5, PBLUC_R_SQUARED 0.616, read-out: LUCIFERASE INFECTION ASSAY - IC50): 2.98 µM
Fc1ccc(/N=c2\scc(-c3ccc4c(c3)OCCO4)n2C2CCCC2)cc1	1.58 µM	IC50 (FFLUC_HILL_SLOPE 15, FFLUC_R_SQUARED 0.34, HEPG2TOX_HILL_SLOPE 7.4, HEPG2TOX_R_SQUARED 0.523, PBLUC_HILL_SLOPE 11.6, PBLUC_R_SQUARED 0.501, read-out: LUCIFERASE INFECTION ASSAY - IC50): 1.31 µM
C=CCOc1ccccc1C(=O)Nc1nc2c(s1)CN(C(=O)OC(C)(C)C)CC2	4.73 µM	IC50 (HEPG2TOX_HILL_SLOPE 3.68, HEPG2TOX_R_SQUARED 0.942, PBLUC_HILL_SLOPE 10.6, PBLUC_R_SQUARED 0.381, read-out: LUCIFERASE INFECTION ASSAY - IC50): 3.84 µM
CCOC(=O)c1c(C)[nH]c(C(=O)Nc2ccnn2C2CCCC2)c1C	6.13 µM	IC50 [1]: 6.86 µM
FC(F)(F)c1ccc2nc(SCc3nc(-c4ccc(Cl)cc4)no3)[nH]c2c1	> 8.03 µM	IC50 [1]: > 8.03 µM
